Where no end group is shown, it is not given here.
Legend:
[1] = system: OVA-specific DO11-10 T cells; test: In vivo activation of T lymphocytes by cutaneous lipopeptide application on the ear (FACS of draining lymph node); design: species or system BALB/c mice; conditions: daily 20 μl of 50 μM on the ear, vs olive oil; FIG. 1
Experimental: Lipopeptide activates T lymphocytes in vivo. BALB/c mice were injected intravenously with 20×10^6 DO11-10 TCR-anti OVA transgenic splenocytes. Mice where then treated during 4 days by applying daily 20 μl of 50 μM OVA323-339-lipopeptide or the vehicle directly on one ear. At day five, mice were sacrificed, the draining lymph node and the contra-lateral node cells were stained with the anti-idiotype KJ1-26 recognizing specifically DO11-10 T lymphocytes, anti-CD4 and anti-CD25 antibody. FACS analysis is shown for lymph node cells gated on CD4^+ T lymphocytes.
To analyze the potential curative effect of Tr1 cells in a different inflammatory model, the inventors set up skin inflammation experiments using the hapten oxazolone in three daily applications (FIG. 1). Because Tr1 cells need to be activated at the site of inflammation, they first tested the ability of cutaneous application of lipo-Ova peptide to stimulate T cells. BALB/c mice were injected with naive OVA-specific DO11-10 T cells and mice were treated during […] by applying daily 20 μl of 50 μM OVA323-339-lipopeptide or olive oil directly on the ear. […] In that model, three days after the induction of ear inflammation with oxazolone, the mice were treated with OVA-specific Th1, Th2 or Tr1 T-cell populations or a Tr1 cell clone (FIG. 2) and the lipo-OVA peptide was applied for 6 days.

[2] = system: CD4+ mediated humoral response; test: Enhancement of a CD4+ mediated humoral response (serum Ovalbumin-specific IgE); assay type: in vivo, Balb/C mice; conditions: mice immunised i.p. with 25 μg Ovalbumin in Alumn; 1 mg lipopeptide on skin for 3 days; day 20; FIG. 5
Experimental: (§1) TRP2180-188 lipopeptide and OVA323-339-lipopeptide were diluted at 10 mg/ml in olive oil. Mice were treated during by applying 1 mg lipopeptide or olive oil directly on shaved abdominal skin.
(§2) Sandwich ELISA was used to measure IFN-γ. In brief, ELISA plates (Polylabo, France) were coated with the appropriate coating mAbs (monoclonal antibodies) in carbonate buffer and incubated at 4° C. overnight. Plates were blocked for 30 mn at room temperature with 150 μl of 20% FCS/PBS to each well. 50 μl supernatants from in vitro stimulated cells were then added to the plates and incubated overnight at 4° C. After a washing step, 50 μl/well of the biotinylated second-step Ab was added. Plates were incubated for 1 h at room temperature and washed. The enzyme conjugate (streptavidin-peroxidase) was then added to each well. Plates were incubated at room temperature for 1 h, washed and 100 μl/well of substrate was added, (1 mg/ml ABTS). Plates were read on an ELISA reader at a wavelength of 405 nm after color development (Labsystems iEMS reader, Helsinki, Finland). […]
The inventors also wanted to know wether a lipopeptide epicutaneous application could enhance an humoral response elicited by CD4^+ T lymphocytes in immunised mice. […] At day 20, mice were sacrificed and the concentration of Ovalbumin-specific IgE immunoglobulin was measured in the serum of mice.

[3] = system: CD8+ mediated T lymphocyte response; test: Priming of a CD8+ T lymphocyte response by epicutaneous lipopeptide application (IFN-γ by lymph node cells); assay type: in vivo, C57BL/6 mice; conditions: 1 mg on shaved abdomen once a day during one week, read one week later, vs untreated or vehicle; FIG. 3
Experimental: as §1
as §2, with “Plates were incubated at room temperature for 1 h, washed and 100 μl/well of substrate was added, (1 mg/ml ABTS).” left out
The inventors first wanted to know whether the epicutaneous application of a MHC class I restricted peptide formulated as a lipopeptide could prime a T CD8^+ lymphocyte mediated immune response in mice. […] One week after the last lipopeptide application, mice were sacrificed and the production of IFN-γ by skin draining lymph nodes cells was measured in vitro upon restimulation with the TRP2180-188 peptide.

[4] = system: CD8+ mediated T lymphocyte response; test: Enhancement of a CD8+ T lymphocyte response after prior peptide immunisation (IFN-γ by lymph node cells); assay type: in vivo; conditions: mice previously immunised s.c. with 25 μg TRP2180-188 peptide in CFA; 1 mg lipopeptide on skin for 3 days; day 30; FIG. 4
Experimental: as §1, §2
The inventors next wanted to evaluate the capacity of the TRP2180-188 lipopeptide treatment to enhance a prior immunisation of mice with the TRP2180-188 peptide. […] At day 30, mice were sacrificed and the production of IFN-γ by skin draining lymph nodes cells was measured in vitro upon restimulation with the TRP2180-188 peptide.

Row | Substance | activated (CD25+) OVA-specific (KJ1-26+) T cells in draining lymph nodes [1] | serum concentration of Ovalbumin-specific IgE [2] | production of IFN-γ by skin draining lymph nodes cells upon restimulation with the TRP2180-188 peptide [3] | production of IFN-γ by skin draining lymph nodes cells upon restimulation with the TRP2180-188 peptide [4]
1 | OVA323-339-lipopeptide (KISQAVHAAHAEINEAG; also: lipid moiety, structure and place not given here; UniProt P01012 323-339, looked up, fragment) [peptide 323-339 from Ovalbumin, MHC Class II I-A^d restricted, formulated as lipopeptide; purchased from Bachem] | accumulation of activated (CD25^+) OVA-specific (KJ1-26^+) only in the ear draining-lymph node treated with the lipopeptide | increase in the serum concentration of Ovalbumin specific IgE | – | –
2 | TRP2180-188 lipopeptide (SVYDFFVWL; also: lipid moiety, structure and place not given here; UniProt P29812 180-188, looked up, fragment) [lipopeptide derived from the tyrosinase related protein-2, restricted to the H2-K^b molecule; purchased from Bachem] | – | – | high amounts of IFN-γ were produced | enhancement of the IFNγ production

— patent US20070275005A1, “Use of Lipopeptides for Activating T Lymphocytes Through the Skin” (TX-CELL, priority 2003, published 2007)
